# Assay results from paper PMC13403234, “Engineering Cathepsin S Selective Chemical Probes and Antibody−Drug Conjugates through Substrate Profiling with Unnatural Amino Acids” (Journal of Medicinal Chemistry, 2026).
# *1 amine or outer side, *2 acyl side, *3 side chain or, on linkers, in order; H or OH if unused. Where a SMILES comes first, the peptide text is derived from it. [ ]: non-standard residue; d: D form. The star is where a group is joined. Dolaproine = CO[C@@H]([C@@H]1CCCN1)[C@@H](C)C(=O)O; Phe(F5) = N[C@@H](Cc1c(F)c(F)c(F)c(F)c1F)C(=O)O; Dil = CC[C@H](C)[C@H](NC)[C@@H](CC(=O)O)OC; PABC = O=C(OCc1ccc(N[*:1])cc1)[*:2]; X1 = C[C@@H](N*)[C@@H](O)c1ccccc1; Cit = NC(=O)NCCC[C@H](N)C(=O)O; NMeV = CN[C@H](C(=O)O)C(C)C; ClZ = O=C(OCc1ccccc1Cl)*
# What was measured:
# Cathepsin S [1] = target: T1, Cathepsin S (Homo sapiens, UniProt P25774); assay: Prodrug cleavage / MMAE release by LC-MS, cathepsin S; format: biochemical; settings: prodrug 50 μM, pH 5.5, 37 °C, 0-120 min
# T1 construct: made in house
# T1 sequence (P25774 115-331): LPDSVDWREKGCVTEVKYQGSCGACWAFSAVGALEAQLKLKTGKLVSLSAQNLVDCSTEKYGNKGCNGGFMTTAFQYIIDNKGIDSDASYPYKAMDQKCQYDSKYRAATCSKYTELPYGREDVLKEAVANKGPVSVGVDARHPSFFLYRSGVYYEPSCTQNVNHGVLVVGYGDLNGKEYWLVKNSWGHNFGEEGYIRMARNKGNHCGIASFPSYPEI
# Protocol: Cleavage assays were conducted at 37 °C in 1 mL reaction volumes using acetate buffer composed of 100 mM sodium acetate (pH 5.5), 100 mM NaCl, 1 mM EDTA, and 5 mM DTT. Buffers were prepared at room temperature and equilibrated before use. Prodrugs were initially dissolved in DMSO at a stock concentration of 10 mM, then diluted into the reaction buffer to a final concentration of 50 μM, maintaining a DMSO concentration below 0.5% (v/v). Reactions were initiated by the addition of recombinant cathepsin and carried out in glass LC-MS vials incubated at 37 °C. At specified time points (0, 5, 30, 60, and 120 min), aliquots were taken and directly injected into the LC-MS system without further processing. Quantification of MMAE release was based on absorbance at 220 nm. The area under the MMAE peak was integrated, and the amount of released MMAE was plotted as a function of time. Each time point was measured in triplicate, and results are presented as mean ± standard deviation (SD). A standard curve was prepared using free MMAE at concentrations of 1, 5, 10, 20, and 50 μM to enable accurate quantification of MMAE released from the prodrugs.
# Cathepsin L [2] = target: T2, Cathepsin L (Homo sapiens, UniProt P07711); assay: Second-order rate constants of inhibition (kobs/[I]), cathepsin L; format: biochemical; settings: for kobs/[I] Cath L: Figure 4D, Cy5- and BODIPY-labeled probes
# T2 construct: made in house
# T2 sequence (P07711 114-333): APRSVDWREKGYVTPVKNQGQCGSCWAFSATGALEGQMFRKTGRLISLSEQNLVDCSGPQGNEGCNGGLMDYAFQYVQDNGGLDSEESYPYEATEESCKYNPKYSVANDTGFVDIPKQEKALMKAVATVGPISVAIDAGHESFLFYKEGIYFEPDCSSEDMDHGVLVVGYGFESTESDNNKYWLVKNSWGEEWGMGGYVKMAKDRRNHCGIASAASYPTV
# Protocol: (§1) All kinetic studies were performed using an fMax fluorescence plate reader (Molecular Devices) in kinetic mode with 96- or 384-well plates. ACC fluorescence was monitored at excitation and emission wavelengths of 355 and 460 nm, respectively. Recombinant human cysteine cathepsins L, V, B, K, and S were expressed and purified as previously described. Prior to use, all cysteine cathepsins were titrated with E64 to normalize enzymatic activity. Assays for cathepsins were conducted in 100 mM sodium acetate buffer containing 10 mM NaCl and 10 mM DTT (pH 5.5). Breast cancer cell lysates (BT-474, MCF-7, MDA-MB-231) were prepared by culturing cells to confluence in the appropriate media, replacing media with PBS, and harvesting the cells using a cell scraper (without trypsin). The cells were pelleted by centrifugation (400 × g, 5 min), resuspended in PBS, and centrifuged again under the same conditions. After removal of the supernatant, the pellet was resuspended in cathepsin assay buffer (excluding DTT) and sonicated. Lysates were then clarified by centrifugation (12,000 × g, 5 min), and the supernatants were collected and stored at −80 °C until use. All enzymatic assays, including HyCoSuL library screening and kinetic analyses of synthetic substrates, inhibitors, probes and prodrugs, were conducted at 37 °C and repeated at least three times. Mean values are reported. Kinetic data were analyzed using GraphPad Prism software (version 10.4.1).
# (§2) The second-order rate constants of inhibition (k obs/[I]) were determined for human recombinant cathepsins S, B, L, and V using their respective assay buffers. All measurements were performed under pseudo-first-order kinetic conditions, as previously described. Inhibitors or ABPs were serially diluted in assay buffer and transferred to a 96-well plate. Each well was supplemented with the fluorogenic substrate Cbz-Phe-Arg-AMC at a final concentration of 25 μM and preincubated for 15 min. In parallel, enzymes were preactivated in assay buffer for 15 min at room temperature. Following preincubation, the activated enzymes were added to the wells, and fluorescence was monitored immediately for 30 min. The k obs/[I] values (M^-1S^-1) were calculated from the progress curves and averaged from at least three independent experiments. Final inhibitor (or ABP) concentrations were maintained at a minimum of 5-fold excess relative to enzyme concentrations to ensure pseudo-first-order conditions. Results were analyzed in GraphPad Prism and are reported as mean ± standard deviation.
# Cathepsin B [3] = target: T3, Cathepsin B (Homo sapiens, UniProt P07858); assay: Second-order rate constants of inhibition (kobs/[I]), cathepsin B; format: biochemical; parameters: made in house; settings: for kobs/[I] Cath B: Figure 4D, Cy5- and BODIPY-labeled probes
# Protocol: as §1, §2
# Cathepsin S [4] = target: T1, Cathepsin S; assay: Second-order rate constants of inhibition (kobs/[I]), cathepsin S; format: biochemical; settings: for kobs/[I] Cath S / Selectivity S to B / Selectivity S to V: Figure 4D; for kobs/[I] Cath S: Cy5- and BODIPY-labeled probes; for Selectivity S to B / Selectivity S to V: calculated from kobs/[I]; for Selectivity S to B: cathepsin S over cathepsin B; for Selectivity S to V: cathepsin S over cathepsin V
# Protocol: as §1, §2
# [5] = target: T4, active cathepsin S in MDA-MB-231 live cells (Homo sapiens, UniProt P25774); assay: Labeling of active cathepsin S in MDA-MB-231 live cells with Cy5 probes; format: cell-based; settings: inhibitor 25 μM for 2 h, then OG-233 or OG-234 for 24 h
# T4 construct: endogenous in cells; host or cells: MDA-MB-231
# T4 sequence (P25774 115-331): as the sequence (P25774 115-331) above
# Protocol: 50,000 of MDA-MB-231 cells were seeded into 12-well plate and allowed to attach overnight. The next day, OG-233 and OG-234 probes (1 μM final concentration) were added to the cells and incubated for various times (from 0,5 h up to 24 h). Control cells were preincubated with cathepsin S inhibitors (JN1, JN4, JN7) at 25 μM for 2 h, and then incubated with OG-233 or OG-234 probes for 24 h. Next, cells were harvested and prepared for SDS-PAGE analysis as described in the above section. Electrophoresis was run for 25 min (4−12% Bis-Tris Plus 10-well gel, 200 V). Next, proteins were transferred onto the membrane (0.2 μm nitrocellulose membrane, 10 V, 60 min) and Ponceau S was used to verify equal loading and transfer. Membranes were then blocked with 5% BSA in TBS-T buffer for 1 h at RT. Membranes were next incubated anticathepsin S antibody (1:1,000, overnight, 4 °C), and the next day with a secondary antibody (IRDye 800CW, donkey anti-Goat) for 30 min at RT, and scanned at 680 and 800 nm using the Sapphire biomolecular imager (Azure Biosystems) to detect the Cy5 probes and cathepsin S. All images were analyzed with Image Studio software.
# Cathepsin B [6] = target: T3, Cathepsin B; assay: Fluorogenic ACC substrate hydrolysis kinetics, cathepsin B; format: biochemical; parameters: made in house; kcat Cathepsin B: unit not given here; settings: third-generation substrates, steady-state; for Km: Table S5; for kcat Cathepsin B: Table S6
# Protocol: as §1
# (§3) Peptide substrates for cathepsin S were designed based on P4-P1 specificity profiling and synthesized on Rink amide resin using standard Fmoc solid-phase peptide synthesis protocols. The resin was swollen in dichloromethane (DCM) and deprotected with 20% piperidine in DMF. Fmoc-ACC-OH was coupled twice using HOBt/DIC in DMF and allowed to react overnight. Subsequent Fmoc-protected amino acids were coupled sequentially using HATU and 2,4,6-collidine, with Fmoc deprotection after each step using 20% piperidine in DMF. Following chain assembly, the N-terminus was acetylated using AcOH/HBTU/DIPEA in DMF for 45 min. Peptides were cleaved from the resin using TFA/TIPS/H2O (95:2.5:2.5, v/v/v) for 2 h, precipitated in cold diethyl ether, lyophilized, and purified by preparative HPLC. […] Final compounds were dissolved in DMSO at 20 mM and stored at −80 °C. To evaluate substrate selectivity, each fluorogenic peptide (10 μM) was incubated with recombinant cysteine cathepsins (5 nM) in assay buffer at 37 °C. Fluorescence emission was recorded at 460 nm, and initial cleavage rates were reported as relative fluorescence units per second (RFU/s). For selected substrates, detailed kinetic parameters (k cat, KM, and k cat/KM) were determined as previously described.
# Cathepsin V [7] = target: T5, Cathepsin V (Homo sapiens, UniProt O60911); assay: Fluorogenic ACC substrate hydrolysis kinetics, cathepsin V; format: biochemical; parameters: kcat Cathepsin V: unit not given here; settings: third-generation substrates, steady-state; for Km: Table S5; for kcat Cathepsin V: Table S6
# T5 construct: made in house
# T5 sequence (O60911 114-334): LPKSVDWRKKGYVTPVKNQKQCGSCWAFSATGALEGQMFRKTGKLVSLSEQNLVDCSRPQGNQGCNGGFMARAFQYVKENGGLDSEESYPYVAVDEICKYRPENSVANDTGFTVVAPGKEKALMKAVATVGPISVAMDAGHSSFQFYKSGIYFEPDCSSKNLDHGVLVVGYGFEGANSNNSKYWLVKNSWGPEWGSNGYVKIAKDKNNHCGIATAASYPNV
# Protocol: as §1, §3
# Cathepsin L [8] = target: T2, Cathepsin L; assay: Fluorogenic ACC substrate hydrolysis kinetics, cathepsin L; format: biochemical; parameters: kcat Cathepsin L: unit not given here; settings: third-generation substrates, steady-state; for Km: Table S5; for kcat Cathepsin L: Table S6
# Protocol: as §1, §3
# Cathepsin S [9] = target: T1, Cathepsin S; assay: Fluorogenic ACC substrate hydrolysis kinetics, cathepsin S; format: biochemical; parameters: kcat Cathepsin S: unit not given here; settings: third-generation substrates, steady-state; for Km: Table S5; for kcat Cathepsin S: Table S6
# Protocol: as §1, §3
# Cathepsin V [10] = target: T5, Cathepsin V; assay: Second-order rate constants of inhibition (kobs/[I]), cathepsin V; format: biochemical; settings: Figure 4D; Cy5- and BODIPY-labeled probes
# Protocol: as §1, §2
compound,measurement,setting,value
"CC[C@H](C)[C@@H]([C@@H](CC(=O)N1CCC[C@H]1[C@H](OC)[C@@H](C)C(=O)N[C@H](C)[C@@H](O)c1ccccc1)OC)N(C)C(=O)[C@@H](NC(=O)[C@H](C(C)C)N(C)C(=O)OCc1ccc(NC(=O)[C@@H](CCC(=O)OC)NC(=O)[C@H](CCCCNC(=O)OCc2ccccc2Cl)NC(=O)[C@H](CCCNC(N)=O)NC(=O)[C@H](Cc2c(F)c(F)c(F)c(F)c2F)NC(C)=O)cc1)C(C)C [313D, Ac-Phe(F5)-Cit-Lys(2ClZ)-DGlu(Me)-PABC-MMAE] (Ac-[Phe(F5)][Cit]K(ClZ)[dE](OMe)[PABC][NMeV]V[Dil][Dolaproine]-X1; N-terminus and C-terminus assumed)",cleavage / free MMAE release by cathepsin S,Cathepsin S [1],remained stable
"CC(C)C[C@H](NC(=O)[C@H]1O[C@@H]1C(=O)O)C(=O)NCCCCN=C(N)N [E-64, reference compound]",kinact/KI,"Cathepsin L [2]; pH 5.5, read-out: kobs/[I] Cathepsin L",65100 M⁻¹ s⁻¹
same,kinact/KI,"Cathepsin B [3]; pH 5.5, read-out: kobs/[I] Cathepsin B",81200 M⁻¹ s⁻¹
same,kinact/KI,"Cathepsin S [4]; pH 5.5, Table S8, AOMK inhibitors, pseudo-first-order conditions",132000 M⁻¹ s⁻¹
"CC[C@H](C)[C@@H]([C@@H](CC(=O)N1CCC[C@H]1[C@H](OC)[C@@H](C)C(=O)N[C@H](C)[C@@H](O)c1ccccc1)OC)N(C)C(=O)[C@@H](NC(=O)[C@H](C(C)C)N(C)C(=O)OCc1ccc(NC(=O)[C@H](CCC(=O)OC)NC(=O)[C@H](CCCCNC(=O)OCc2ccccc2Cl)NC(=O)[C@H](CCCNC(N)=O)NC(=O)[C@H](Cc2c(F)c(F)c(F)c(F)c2F)NC(C)=O)cc1)C(C)C [compound 313, Ac-Phe(F5)-Cit-Lys(2ClZ)-Glu(Me)-PABC-MMAE] (Ac-[Phe(F5)][Cit]K(ClZ)E(OMe)[PABC][NMeV]V[Dil][Dolaproine]-X1; N-terminus and C-terminus assumed)",cleavage / free MMAE release by cathepsin S,Cathepsin S [1],selectively and efficiently hydrolyzed only by cathepsin S
Ac-Met(O2)-Cit-NptGly-Glu(Me)-AOMK [JN-1],effect of inhibitor pretreatment on probe binding,[5],did not influence probe binding
Ac-Phe(F5)-Cit-Lys(2ClZ)-Glu(Me)-AOMK [JN-7],effect of inhibitor pretreatment on probe binding,[5],did not influence probe binding
Ac-Phe(F5)-Thz-2Aoc-Gln-ACC [OG-200],Km,Cathepsin B [6],20.3 µM
same,kcat Cathepsin B,Cathepsin B [6],"0,30"
same,Km,Cathepsin V [7],4.31 µM
same,kcat Cathepsin V,Cathepsin V [7],"0,20"
same,Km,Cathepsin L [8],15.9 µM
same,kcat Cathepsin L,Cathepsin L [8],"0,02"
same,Km,Cathepsin S [9],1.63 µM
same,kcat Cathepsin S,Cathepsin S [9],"0,15"
Ac-Phe(F5)-Thz-2Aoc-Glu(Me)-ACC [OG-201],Km,Cathepsin B [6],15.8 µM
same,kcat Cathepsin B,Cathepsin B [6],"0,46"
same,Km,Cathepsin V [7],11.2 µM
same,kcat Cathepsin V,Cathepsin V [7],"0,29"
same,Km,Cathepsin L [8],12.1 µM
same,kcat Cathepsin L,Cathepsin L [8],"0,03"
same,Km,Cathepsin S [9],3.04 µM
same,kcat Cathepsin S,Cathepsin S [9],"0,65"
BODIPY-PEG(4)-Met(O2)-Cit-NptGly-Glu(Me)-AOMK [OG-236],kobs/[I] Cath L,Cathepsin L [2],< 500 M⁻¹ s⁻¹
same,kobs/[I] Cath B,Cathepsin B [3],"3,800 M^-1s^-1"
same,kobs/[I] Cath S,Cathepsin S [4],"78,300 M^-1s^-1"
same,Selectivity S to B,Cathepsin S [4],21
same,Selectivity S to V,Cathepsin S [4],36
same,kobs/[I] Cath V,Cathepsin V [10],"2,170 M^-1s^-1"
BODIPY-PEG(4)-Phe(F5)-Cit-Lys(2ClZ)-Glu(Me)-AOMK [OG-235],kobs/[I] Cath L,Cathepsin L [2],< 500 M⁻¹ s⁻¹
same,kobs/[I] Cath B,Cathepsin B [3],"7,700 M^-1s^-1"
same,kobs/[I] Cath S,Cathepsin S [4],"1,140,000 M^-1s^-1"
same,Selectivity S to B,Cathepsin S [4],148
same,Selectivity S to V,Cathepsin S [4],695
same,higher potency than the unlabeled parent inhibitor,"Cathepsin S [4]; cathepsin S kobs/[I], probe vs parent inhibitor",over 2 fold
same,selectivity for cathepsin S over cathepsin L,Cathepsin S [4]; kobs/[I] based,> 2000 fold
same,selectivity for cathepsin S over cathepsin V,Cathepsin S [4]; kobs/[I] based,> 500 fold
same,kobs/[I] Cath V,Cathepsin V [10],"1,640 M^-1s^-1"
